# Results published in patent US7192981B2, “3,4-dihydroxyhydrocinnamic acid derivative” (Bionutrigen Co., Ltd., priority 2005, dated 2007).
# Test system: isolated rat epididymal adipocytes
# Assay: Glucose transport assay (2-DOG uptake)
# Format: cell-based
# Settings: for glucose transport at higher doses: rat adipocytes, 4 h
Molecule,glucose transport at higher doses,"glucose transport (insulin at the indicated concentrations, 30 min)"
"CN(C)C(=N)N=C(N)N [metformin, reference compound]",remained unchanged,–
"COc1ccc(Cl)cc1C(=O)NCCc1ccc(S(=O)(=O)NC(=O)NC2CCCCC2)cc1 [glyburide, reference compound]",decreased,–
insulin,–,increased glucose transport in a dose-dependent manner
